Results on 28 compounds are retold here after patent US10968215B2 (SHANGHAI HAIHE PHARMACEUTICAL CO., LTD., priority 2016, dated 2021).

Each structure is given as a SMILES string. A value given as a limit tells only on which side of the number the result lay.

Sequence of PRC2 complex (EZH2 Y641F/EED/SUZ12/RbAp48/AEBP2) (Q15910 whole entry Y641F): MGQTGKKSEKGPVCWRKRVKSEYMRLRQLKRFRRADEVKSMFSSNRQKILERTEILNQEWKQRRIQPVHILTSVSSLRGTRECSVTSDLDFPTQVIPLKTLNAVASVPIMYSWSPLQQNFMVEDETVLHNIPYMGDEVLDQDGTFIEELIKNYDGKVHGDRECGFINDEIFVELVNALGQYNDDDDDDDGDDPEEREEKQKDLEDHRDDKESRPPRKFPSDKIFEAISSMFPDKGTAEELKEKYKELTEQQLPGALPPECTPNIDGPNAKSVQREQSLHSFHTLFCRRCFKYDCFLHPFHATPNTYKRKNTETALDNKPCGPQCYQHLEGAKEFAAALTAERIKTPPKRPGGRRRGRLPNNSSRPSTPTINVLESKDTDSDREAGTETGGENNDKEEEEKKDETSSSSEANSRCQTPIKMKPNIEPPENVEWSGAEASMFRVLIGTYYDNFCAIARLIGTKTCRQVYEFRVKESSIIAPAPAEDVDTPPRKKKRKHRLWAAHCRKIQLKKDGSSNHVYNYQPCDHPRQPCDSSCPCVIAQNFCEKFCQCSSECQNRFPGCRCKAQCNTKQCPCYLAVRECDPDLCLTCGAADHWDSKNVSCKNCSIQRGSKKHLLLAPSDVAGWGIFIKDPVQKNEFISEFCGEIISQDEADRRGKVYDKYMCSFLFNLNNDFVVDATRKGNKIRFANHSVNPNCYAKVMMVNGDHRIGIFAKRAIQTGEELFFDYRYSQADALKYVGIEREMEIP
Sequence of PRC2 complex (EZH2 Y641F/EED/SUZ12/RbAp48/AEBP2) (O75530 whole entry partner): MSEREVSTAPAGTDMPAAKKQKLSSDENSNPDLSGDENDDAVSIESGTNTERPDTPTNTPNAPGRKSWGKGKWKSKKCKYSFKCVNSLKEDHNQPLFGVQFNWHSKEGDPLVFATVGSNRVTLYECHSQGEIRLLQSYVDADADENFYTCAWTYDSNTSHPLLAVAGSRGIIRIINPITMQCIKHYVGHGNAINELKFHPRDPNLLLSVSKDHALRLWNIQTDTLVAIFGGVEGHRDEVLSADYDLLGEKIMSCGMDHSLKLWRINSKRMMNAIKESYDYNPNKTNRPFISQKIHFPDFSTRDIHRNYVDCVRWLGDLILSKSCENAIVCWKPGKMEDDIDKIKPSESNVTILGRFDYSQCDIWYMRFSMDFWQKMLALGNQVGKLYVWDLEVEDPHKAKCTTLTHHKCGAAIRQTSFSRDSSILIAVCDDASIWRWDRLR
Sequence of PRC2 complex (EZH2 Y641F/EED/SUZ12/RbAp48/AEBP2) (Q15022 whole entry partner): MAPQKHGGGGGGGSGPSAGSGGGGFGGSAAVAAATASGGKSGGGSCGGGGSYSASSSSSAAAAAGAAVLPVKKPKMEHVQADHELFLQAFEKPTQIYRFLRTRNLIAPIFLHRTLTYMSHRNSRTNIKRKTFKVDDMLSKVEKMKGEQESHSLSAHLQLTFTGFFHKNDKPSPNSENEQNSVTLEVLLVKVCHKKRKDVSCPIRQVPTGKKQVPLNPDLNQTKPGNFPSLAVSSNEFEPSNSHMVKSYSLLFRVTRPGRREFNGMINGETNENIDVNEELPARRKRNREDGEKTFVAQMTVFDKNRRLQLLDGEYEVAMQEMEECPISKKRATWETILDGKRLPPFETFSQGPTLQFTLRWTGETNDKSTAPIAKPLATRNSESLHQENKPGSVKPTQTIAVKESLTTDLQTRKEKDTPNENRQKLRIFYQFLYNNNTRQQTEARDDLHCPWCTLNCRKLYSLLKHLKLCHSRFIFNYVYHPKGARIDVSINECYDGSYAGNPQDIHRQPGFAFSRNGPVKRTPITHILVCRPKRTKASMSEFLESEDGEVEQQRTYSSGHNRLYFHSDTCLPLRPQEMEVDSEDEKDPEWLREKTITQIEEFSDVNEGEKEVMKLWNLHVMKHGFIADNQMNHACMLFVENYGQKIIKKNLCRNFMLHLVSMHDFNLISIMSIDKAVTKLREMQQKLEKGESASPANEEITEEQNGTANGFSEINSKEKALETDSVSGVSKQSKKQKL
Sequence of PRC2 complex (EZH2 Y641F/EED/SUZ12/RbAp48/AEBP2) (Q09028 whole entry partner): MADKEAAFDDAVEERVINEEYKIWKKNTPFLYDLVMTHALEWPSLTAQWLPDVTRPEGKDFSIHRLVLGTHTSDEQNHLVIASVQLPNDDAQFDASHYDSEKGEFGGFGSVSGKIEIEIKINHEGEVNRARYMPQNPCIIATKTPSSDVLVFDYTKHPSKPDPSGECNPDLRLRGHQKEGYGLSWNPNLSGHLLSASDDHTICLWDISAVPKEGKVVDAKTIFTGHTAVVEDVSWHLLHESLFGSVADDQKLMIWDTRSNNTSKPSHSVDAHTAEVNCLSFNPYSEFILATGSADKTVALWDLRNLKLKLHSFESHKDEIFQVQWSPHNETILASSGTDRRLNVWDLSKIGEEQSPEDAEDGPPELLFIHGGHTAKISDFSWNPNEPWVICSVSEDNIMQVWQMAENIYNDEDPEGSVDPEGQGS
Sequence of PRC2 complex (EZH2 Y641F/EED/SUZ12/RbAp48/AEBP2) (Q6ZN18 whole entry partner): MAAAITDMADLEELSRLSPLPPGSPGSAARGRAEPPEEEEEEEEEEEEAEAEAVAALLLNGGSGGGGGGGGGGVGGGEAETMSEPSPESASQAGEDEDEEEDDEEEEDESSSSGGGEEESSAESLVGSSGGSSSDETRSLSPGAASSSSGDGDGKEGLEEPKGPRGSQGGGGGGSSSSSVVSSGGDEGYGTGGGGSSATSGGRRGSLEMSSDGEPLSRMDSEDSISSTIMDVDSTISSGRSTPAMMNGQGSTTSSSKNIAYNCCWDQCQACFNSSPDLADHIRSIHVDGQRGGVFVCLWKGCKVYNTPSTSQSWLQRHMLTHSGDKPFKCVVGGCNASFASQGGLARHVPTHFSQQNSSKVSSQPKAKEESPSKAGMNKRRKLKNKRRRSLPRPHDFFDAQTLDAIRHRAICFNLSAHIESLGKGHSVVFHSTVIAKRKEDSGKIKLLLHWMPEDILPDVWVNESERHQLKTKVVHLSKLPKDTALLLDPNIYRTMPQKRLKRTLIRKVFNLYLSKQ

The first test concerns the target PRC2 complex (EZH2 Y641F/EED/SUZ12/RbAp48/AEBP2) (Homo sapiens (Human), UniProt Q15910, Y641F). Put plainly: Activity of a compound to PRC2 complex (EZH2 Y641F), HTRF.
Conditions: not given
For orientation: In TR-FRET formats the signal depends on donor and acceptor labels being close together.
With `COc1cc(C)[nH]c(=O)c1CNC(=O)c1cc2cc(-c3nccn3C)cn2c(C(C)N2CCN(CC(F)(F)F)CC2)c1C` (stereo not shown) [Example 109, N-((4-methoxy-6-methyl-2-oxo-1,2-dihydropyridin-3-yl)methyl)-6-methyl-2-(1-methyl-1H-imidazol-2-yl)-5-(1-(4-(2,2,2-trifluoroethyl)piperazin-1-yl)ethyl)indolizine-7-carboxamide], the IC50 (in general, the concentration needed to halve the response being measured) is 0.1 to 1 µM.

Take `Cc1cc(C)c(CNC(=O)c2cc3cc(-c4cc5c(s4)CCNC5)cn3c(C(C)N3CCOCC3)c2C)c(=O)[nH]1` (stereo not shown) [Example 115, N-((4,6-dimethyl-2-oxo-1,2-dihydropyridin-3-yl)methyl)-6-methyl-5-(1-morpholinoethyl)-2-(4,5,6,7-tetrahydrothieno[3,2-c]pyridin-2-yl)indolizine-7-carboxamide]: the IC50 was less than 0.1 µM.

As for `Cc1cc(C)c(CNC(=O)c2cc3c(-c4cccc(N5CCOCC5)c4)ccn3c(C(C)N3CCOCC3)c2C)c(=O)[nH]1` (stereo not shown) [Example 117, N-((4,6-dimethyl-2-oxo-1,2-dihydropyridin-3-yl)methyl)-6-methyl-5-(1-morpholinylethyl)-1-(3-morpholinylphenyl)indolizine-7-carboxamide], the IC50 was less than 0.1 µM.

`COc1ccc(-c2ccn3c(C(C)N4CCOCC4)c(C)c(C(=O)NCc4c(C)cc(C)[nH]c4=O)cc23)cc1` (stereo not shown) [Example 121, N-((4,6-dimethyl-2-oxo-1,2-dihydropyridin-3-yl)methyl)-6-methyl-5-(1-morpholinylethyl)-1-(4-methoxyphenyl)indolizine-7-carboxamide]: the half-maximal inhibitory concentration (IC50) fell in the range of 0.1 to 1 µM.

In the case of `Cc1cc(C)c(CNC(=O)c2cc3c(-c4ccccc4)ccn3c(C(C)N3CCC(N(C)C)CC3)c2C)c(=O)[nH]1` (stereo not shown) [Example 127, N-((4,6-dimethyl-2-oxo-1,2-dihydropyridin-3-yl)methyl)-6-methyl-5-(4-dimethylaminopiperidinylethyl)-1-phenylindolizine-7-carboxamide], the IC50 was less than 0.1 µM.

Compound `COc1cc(C)[nH]c(=O)c1CNC(=O)c1cc2c(-c3ccnn3C)ccn2c(C(C)N2CCOCC2)c1C` (stereo not shown) [Example 132, N-((4-methoxy-6-methyl-2-oxo-1,2-dihydropyridin-3-yl)methyl)-6-methyl-1-(1-methyl-1H-pyrazol-5-yl)-5-(1-morpholinylethyl)indolizine-7-carboxamide] showed an IC50 of less than 0.1 µM.

`COc1cc(C)[nH]c(=O)c1CNC(=O)c1cc2cc(-c3cncn3C)cn2c(C(C)N2CCN(CC(F)(F)F)CC2)c1C` (stereo not shown) [Example 137, N-((4-Methoxy-6-methyl-2-oxo-1,2-dihydropyridin-3-yl)methyl)-6-methyl-2-(1-methyl-1H-imidazol-5-yl)-5-(1-(4-(2,2,2-trifluoroethyl)piperazin-1-yl)ethyl)indolizine-7-carboxamide] displayed an IC50 of less than 0.1 µM.

Take `Cc1cc(C)c(CNC(=O)c2cc3cc(-c4cncs4)cn3c(C(C)N3CCC(N(C)C)CC3)c2C)c(=O)[nH]1` (stereo not shown) [Example 139]: the IC50 was less than 0.1 µM.

The same test, now with this note: read-out: IC50 (EZH2_Y641F); EZH2 Y641F PRC2 complex, HTRF; class symbols.
Consider `Cc1cc(C)c(CNC(=O)c2cc3cc(-c4ccn[nH]4)cn3c(C(C)N3CCOCC3)c2C)c(=O)[nH]1` (stereo not shown) [Example 112, N-((4,6-dimethyl-2-oxo-1,2-dihydropyridin-3-yl)methyl)-6-methyl-5-(1-morpholinoethyl)-2-(pyrazol-5-yl)indolizine-7-carboxamide], for which the IC50 is less than 0.1 µM.

Take `Cc1cc(C)c(CNC(=O)c2cc3cc(-c4cc5c(s4)CCNC5)cn3c(C(C)N3CCOCC3)c2C)c(=O)[nH]1` (stereo not shown) [Example 114, N-((4,6-dimethyl-2-oxo-1,2-dihydropyridin-3-yl)methyl)-6-methyl-5-(1-morpholinoethyl)-2-(4,5,6,7-tetrahydro[2,3-c]pyridin-2-yl)indolizine-7-carboxamide]: the IC50 lay within 0.1 to 1 µM.

With `Cc1cc(C)c(CNC(=O)c2cc3c(-c4cccc(N5CCOCC5)c4)ccn3c(C(C)N3CCOCC3)c2C)c(=O)[nH]1` (stereo not shown) [Example 116, N-((4,6-dimethyl-2-oxo-1,2-dihydropyridin-3-yl)methyl)-1-(3-(dimethylamine)phenyl)-6-methyl-5-(1-morpholinylethyl)indolizine-7-carboxamide], the IC50 was less than 0.1 µM.

Take `Cc1cc(C)c(CNC(=O)c2cc3c(-c4ccc(N5CCOCC5)cc4)ccn3c(C(C)N3CCOCC3)c2C)c(=O)[nH]1` (stereo not shown) [Example 118, N-((4,6-dimethyl-2-oxo-1,2-dihydropyridin-3-yl)methyl)-1-(4-(dimethylamine)phenyl)-6-methyl-5-(1-morpholinylethyl)indolizine-7-carboxamide]: the IC50 is less than 0.1 µM.

As for `Cc1cc(C)c(CNC(=O)c2cc3c(-c4ccc(N5CCOCC5)cc4)ccn3c(C(C)N3CCOCC3)c2C)c(=O)[nH]1` (stereo not shown) [Example 119, N-((4,6-dimethyl-2-oxo-1,2-dihydropyridin-3-yl)methyl)-6-methyl-5-(1-morpholinylethyl)-1-(4-morpholinylphenyl)indolizine-7-carboxamide], the IC50 is less than 0.1 µM.

On to `COc1cccc(-c2ccn3c(C(C)N4CCOCC4)c(C)c(C(=O)NCc4c(C)cc(C)[nH]c4=O)cc23)c1` (stereo not shown) [Example 120, N-((4,6-dimethyl-2-oxo-1,2-dihydropyridin-3-yl)methyl)-6-methyl-5-(1-morpholinylethyl)-1-(3-methoxyphenyl)indolizine-7-amide], for which the IC50 is less than 0.1 µM.

For `Cc1cc(C)c(CNC(=O)c2cc3cc(Br)cn3c(C(C)N3CCC(F)(F)CC3)c2C)c(=O)[nH]1` (stereo not shown) [Example 122], the IC50 is 0.1 to 1 µM.

As for `Cc1cc(C)c(CNC(=O)c2cc3cc(Br)cn3c(C(C)N3CCC(F)(F)CC3)c2C)c(=O)[nH]1` (stereo not shown) [Example 123, 2-bromo-5-(1-(4,4-difluoropiperidin-1-yl)ethyl)-N-((4,6-dimethyl-2-oxo-1,2-dihydropyridin-3-yl)methyl)-6-methylindolizine-7-carboxamide], the IC50 fell in the range of 1 to 10 µM.

Turning to `COc1ccc(F)c(-c2cc3cc(C(=O)NCc4c(C)cc(C)[nH]c4=O)c(C)c(C(C)N4CCOCC4)n3c2)c1` (stereo not shown) [Example 124, N-((4,6-dimethyl-2-oxo-1,2-dihydropyridin-3-yl)methyl)-2-(2-fluoro-5-methoxyphenyl)-6-methyl-5-(1-morpholinoethyl)indolizine-7-carboxamide], the IC50 lay within 0.1 to 1 µM.

With `COC(=O)c1cc2cc(C(=O)NCc3c(C)cc(C)[nH]c3=O)c(C)c(C(C)N3CCOCC3)n2c1` (stereo not shown) [Example 125, methyl 7-(((4,6-dimethyl-2-oxo-1,2-dihydropyridin-3-yl)methyl)carbamoyl)-6-methyl-5-(1-morpholinylethyl)indolizine-2-carboxylate], the IC50 was in the range of 0.1 to 1 µM.

With `Cc1cc(C)c(CNC(=O)c2cc3cc(C(=O)N4CCOCC4)cn3c(C(C)N3CCOCC3)c2C)c(=O)[nH]1` (stereo not shown) [Example 126, N-((4,6-dimethyl-2-oxo-1,2-dihydropyridin-3-yl)methyl)-6-methyl-2-(morpholin-4-carbonyl)-5-(1-morpholinoethyl)indolizine-7-carboxamide], the 50% inhibitory concentration (IC50) is less than 0.1 µM.

`COc1cc(C)[nH]c(=O)c1CNC(=O)c1cc2c(-c3ccccc3)ccn2c(C(C)N2CCC(N(C)C)CC2)c1C` (stereo not shown) [Example 129, N-((4,6-dimethyl-2-oxo-1,2-dihydropyridin-3-yl)methyl)-5-(1-(4-(dimethylamine)piperidine-1-yl)ethyl)-6-methyl-1-(1-methyl-1H-pyrazol-5-yl)indolizine-7-carboxamide]: the IC50 is less than 0.1 µM.

With `COc1cc(C)[nH]c(=O)c1CNC(=O)c1cc2cc(Cl)cn2c(C(C)N2CCC(N(C)C)CC2)c1C` (stereo not shown) [Example 130, 2-chloro-5-(1-(4-(dimethylamino)piperidin-1-yl)ethyl)-N-((4-methoxy-6-methyl-2-oxo-1,2-di hydropyridin-3-yl)methyl)-6-methylindolizine-7-carboxamide], the IC50 is less than 0.1 µM.

As to `COc1cc(C)[nH]c(=O)c1CNC(=O)c1cc2c(-c3ccccc3)ccn2c(C(C)N2CCOCC2)c1C` (stereo not shown) [Example 131, N-((4-methoxy-6-methyl-2-oxo-1,2-dihydropyridin-3-yl)methyl)-6-methyl-5-(1-morpholinylethyl)-1-phenylindolizine-7-carboxamide], the IC50 was less than 0.1 µM.

For `Cc1cc(C)c(CNC(=O)c2cc3cc(-c4cncn4C)cn3c(C(C)N3CCC(N(C)C)CC3)c2C)c(=O)[nH]1` (stereo not shown) [Example 134, N-((4,6-dimethyl-2-oxo-1,2-dihydropyridin-3-yl)methyl)-5-(1-(4-(dimethylamino)piperidin-1-yl)ethyl)-6-methyl-2-(1-methyl-1H-imidazol-5-yl)indolizine-7-carboxamide], the concentration for half-maximal inhibition (IC50) was less than 0.1 µM.

With `COc1cc(C)[nH]c(=O)c1CNC(=O)c1cc2cc(-c3cncn3C)cn2c(C(C)N2CCC(N(C)C)CC2)c1C` (stereo not shown) [Example 135, 5-(1-(4-(dimethylamino)piperidin-1-yl)ethyl)-N-((4-methoxy-6-methyl-2-oxo-1,2-dihydropyridin-3-yl)methyl)-6-methyl-2-(1-methyl-1H-imidazol-5-yl)indolizine-7-carboxamide], the IC50 was less than 0.1 µM.

For `Cc1cc(C)c(CNC(=O)c2cc3cc(-c4cncn4C)cn3c(C(C)N3CCN(CC(F)(F)F)CC3)c2C)c(=O)[nH]1` (stereo not shown) [Example 136, N-((4,6-dimethyl-2-oxo-1,2-dihydropyridin-3-yl)methyl)-6-methyl-2-(1-methyl-1H-imidazol-5-yl)-5-(1-(4-(2,2,2-trifluoroethyl)piperazin-1-yl)ethyl)indolizine-7-carboxamide], the IC50 was less than 0.1 µM.

Take `Cc1cc(C)c(CNC(=O)c2cc3cc(-c4cncs4)cn3c(C(C)N3CCC(N(C)C)CC3)c2C)c(=O)[nH]1` (stereo not shown) [Example 138]: the half-maximal inhibitory concentration (IC50) is less than 0.1 µM.

In the case of `Cc1cc(C)c(CNC(=O)c2cc3cc(-c4cncs4)cn3c(C(C)N3CCN(CC(F)(F)F)CC3)c2C)c(=O)[nH]1` (stereo not shown) [Example 140], the IC50 was 0.1 to 1 µM.

Turning to `Cc1cc(C)c(CNC(=O)c2cc3cc(-c4cncs4)cn3c(C(C)N3CCN(CC(F)(F)F)CC3)c2C)c(=O)[nH]1` (stereo not shown) [Example 141, N-((4,6-dimethyl-2-oxo-1,2-dihydropyridin-3-yl)methyl)-6-methyl-2-(thiazole-5-yl)-5-(1-(4-(2,2,2-trifluoroethyl)piperazin-1-yl)ethyl)indolizine-7-carboxamide], the IC50 is 0.1 to 1 µM.
